Data taken from PMC4674063, “Uncovering the Molecular Mechanism of Actions between Pharmaceuticals and Proteins on the AD Network” (PLoS ONE, 2015).
Where two headings read alike, the source gives them in different places.

Columns and labels:
NEP = NEP (Homo sapiens, UniProt P08473); experiment: Wet-lab test of inhibition of NEP; assay type: biochemical; design: inhibition rate / quenching efficiency: concentration or dose not given beside the values
IDE = molecular target: T1, IDE (Homo sapiens, UniProt P14735); experiment: Wet-lab test of inhibition of IDE; assay type: biochemical; conditions: for inhibition rate / quenching efficiency / IC50: binding to IDE; for IC50: computed value
T1 sequence (P14735 1-1019): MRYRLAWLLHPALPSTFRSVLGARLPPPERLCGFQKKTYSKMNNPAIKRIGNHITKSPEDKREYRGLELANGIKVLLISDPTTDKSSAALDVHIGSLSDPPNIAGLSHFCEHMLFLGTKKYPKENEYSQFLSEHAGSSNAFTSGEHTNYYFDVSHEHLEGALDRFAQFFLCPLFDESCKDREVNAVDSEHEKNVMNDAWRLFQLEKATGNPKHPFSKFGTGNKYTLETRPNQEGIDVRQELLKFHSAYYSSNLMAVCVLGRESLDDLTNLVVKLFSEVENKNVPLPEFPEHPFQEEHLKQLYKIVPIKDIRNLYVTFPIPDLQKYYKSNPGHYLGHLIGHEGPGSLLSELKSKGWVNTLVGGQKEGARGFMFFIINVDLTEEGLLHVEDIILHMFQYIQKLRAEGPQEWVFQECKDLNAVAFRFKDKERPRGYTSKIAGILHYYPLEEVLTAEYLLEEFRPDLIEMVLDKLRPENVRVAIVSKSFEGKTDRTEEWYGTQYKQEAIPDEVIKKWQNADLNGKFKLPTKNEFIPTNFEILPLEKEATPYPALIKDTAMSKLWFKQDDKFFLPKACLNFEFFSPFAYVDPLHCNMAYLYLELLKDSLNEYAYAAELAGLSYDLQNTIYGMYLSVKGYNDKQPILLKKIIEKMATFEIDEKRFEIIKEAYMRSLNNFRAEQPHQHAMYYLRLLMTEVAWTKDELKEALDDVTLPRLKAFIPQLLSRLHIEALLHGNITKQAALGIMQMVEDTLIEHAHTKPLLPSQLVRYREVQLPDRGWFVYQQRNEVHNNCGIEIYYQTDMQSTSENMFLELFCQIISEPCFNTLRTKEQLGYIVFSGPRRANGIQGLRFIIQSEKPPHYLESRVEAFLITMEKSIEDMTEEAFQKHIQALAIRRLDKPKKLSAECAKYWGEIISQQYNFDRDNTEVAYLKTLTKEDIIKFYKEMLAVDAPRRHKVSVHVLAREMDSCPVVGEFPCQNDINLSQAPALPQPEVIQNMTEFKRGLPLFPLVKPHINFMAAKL

[1] = cited from earlier work
[2] = conclusion from both amiloride analogs

Chain of NEP (P08473 whole entry): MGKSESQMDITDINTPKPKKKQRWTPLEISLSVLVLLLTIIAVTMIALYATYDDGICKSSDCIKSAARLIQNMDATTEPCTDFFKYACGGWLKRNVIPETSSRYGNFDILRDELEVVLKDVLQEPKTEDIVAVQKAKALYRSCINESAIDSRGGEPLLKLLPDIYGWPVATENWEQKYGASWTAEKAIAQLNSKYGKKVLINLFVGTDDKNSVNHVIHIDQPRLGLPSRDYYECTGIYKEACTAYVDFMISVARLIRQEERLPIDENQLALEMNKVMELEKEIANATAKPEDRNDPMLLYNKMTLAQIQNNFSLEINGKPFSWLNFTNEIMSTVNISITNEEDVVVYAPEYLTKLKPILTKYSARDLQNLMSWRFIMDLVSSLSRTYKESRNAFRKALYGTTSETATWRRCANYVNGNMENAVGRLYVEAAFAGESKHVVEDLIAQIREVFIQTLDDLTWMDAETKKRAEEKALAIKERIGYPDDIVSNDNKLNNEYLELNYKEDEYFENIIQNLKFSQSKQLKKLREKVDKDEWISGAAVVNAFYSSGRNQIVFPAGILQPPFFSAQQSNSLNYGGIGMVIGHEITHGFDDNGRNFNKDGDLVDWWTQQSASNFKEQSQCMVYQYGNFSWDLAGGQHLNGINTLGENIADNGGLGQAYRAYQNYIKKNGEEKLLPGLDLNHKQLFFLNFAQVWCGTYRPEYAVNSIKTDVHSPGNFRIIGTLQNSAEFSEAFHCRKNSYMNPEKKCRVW

Structure (SMILES): O=C(O)CNC(=O)C(CS)Cc1ccccc1 (racemic) [DL-Thiophan]
- inhibition rate (NEP; binding to NEP): 102.01%

Structure (SMILES): CN(C)c1nc(N)c(C(=O)N=C(N)N)nc1Cl.Cl [5-(N,N-Dimethyl) amiloride hydrochloride]
- inhibition rate (NEP; binding to NEP): 80.96%
- quenching efficiency (NEP; binding to NEP): 54.77%
- IC50 (NEP; binding to NEP, computed value): 829 µM
- inhibition rate (IDE): 93.57%
- quenching efficiency (IDE): 54.77%
- IC50 (IDE): 178 µM

Structure (SMILES): N=C(N)NC(=O)c1nc(Cl)c(N)nc1N [AMR, Amiloride]
- inhibition of NEP (in words) (NEP; [2]): weakly inhibits NEP
- inhibition of IDE (in words) (IDE; [2]): strongly inhibits IDE

Structure (SMILES): Cl.N=C(N)NC(=O)c1nc(Cl)c(N)nc1N.O.O [Amiloride HCl dihydrate]
- inhibition rate (NEP; binding to NEP): 65.21%
- quenching efficiency (NEP; binding to NEP): -6.64%
- inhibition rate (IDE): 95.02%
- quenching efficiency (IDE): -6.64%
- IC50 (IDE): 214 µM

Structure (SMILES): COc1ccc2c3c1O[C@H]1C[C@@H](O)C=C[C@@]31CCN(C)C2 [GNT, galantamine]
- crosses the blood-brain barrier (BBB) [1]: cross the blood-brain barrier

Structure (SMILES): C/C=C1\[C@H]2C=C(C)C[C@]1(N)c1ccc(=O)[nH]c1C2 [HUP, Huperzine A]
- crosses the blood-brain barrier (BBB) ([1]; in vivo): cross the blood-brain barrier

Structure (SMILES): OCCN1C[C@H](O)[C@@H](O)[C@H](O)[C@H]1CO [MIG, Miglitol]
- crosses the BBB ([1]; ref not given): cannot cross BBB

Structure (SMILES): NC(=O)C1=CN([C@@H]2O[C@H](COP(=O)(O)OP(=O)(O)OC[C@H]3O[C@@H](n4cnc5c(N)ncnc54)[C@H](O)[C@@H]3O)[C@@H](O)[C@H]2O)C=CC1 [NAI, NADH]
- crosses the BBB [1]: cross the BBB

Structure (SMILES): Nc1c2c(nc3ccccc13)CCCC2 [THA, tacrine]
- crosses the blood-brain barrier (BBB) ([1]; in vivo): cross the blood-brain barrier

Structure (SMILES): Cc1c(C)c2c(c(C)c1O)CC[C@@](C)(CCC[C@H](C)CCC[C@H](C)CCCC(C)C)O2 [VIV, Vitamin E]
- crosses the BBB [1]: cross the BBB
